In the NIST ThermoML archive (doi:10.1016/j.jct.2005.01.002):

Assay: xn = mol fraction of the nth substance listed
Conditions: 101 kPa, Liquid

CCCOCCC [dipropyl ether] + CN(C)C=O
mass density [kg/m3]
Conditions	298.15 K	313.15 K	328.15 K	343.15 K	358.15 K
x2 = 0.0499	749.01	735.06	720.89	706.81	692.16
x2 = 0.1072	756.74	742.84	728.72	714.64	699.96
x2 = 0.1515	763.14	749.17	735.12	720.81	706.1
x2 = 0.2129	772.12	758.15	743.94	729.67	714.89
x2 = 0.2528	778.22	764.23	749.93	735.72	720.91
x2 = 0.3142	787.82	773.92	759.52	745.25	730.4
x2 = 0.3508	793.89	780	765.58	751.24	736.39
x2 = 0.3895	800.55	786.59	772.07	757.74	742.88
x2 = 0.4353	808.57	794.67	780.13	765.72	750.85
x2 = 0.4788	816.49	802.63	788.03	773.58	758.7
x2 = 0.5053	821.46	807.64	793.01	778.54	763.66
x2 = 0.5243	825.12	811.32	796.66	782.18	767.29
x2 = 0.5454	829.23	815.46	800.8	786.3	771.4
x2 = 0.6019	840.66	826.99	812.28	797.75	782.85
x2 = 0.6475	850.32	836.74	821.98	807.43	792.53
x2 = 0.7054	863.22	849.75	834.83	820.5	805.64
x2 = 0.7502	873.74	860.32	845.39	830.97	816.13
x2 = 0.79	883.5	870.11	854.95	840.56	825.74
x2 = 0.8514	899.37	886.42	871.19	856.91	842.07
x2 = 0.9075	914.86	902.16	886.61	872.33	857.58
x2 = 0.9594	933.76	921.32	905.81	891.47	876.94
